{"source": "ChEMBL document CHEMBL4811286", "about": "“Novel 1,3,4-oxadiazole compounds inhibit the tyrosinase and melanin level: Synthesis, in-vitro, and in-silico studies” (Bioorg Med Chem, 2021)", "molecules": {"B1": {"name": "Tyrosinase (Agaricus bisporus), O42713 (protein)", "chain": "MSLIATVGPTGGVKNRLNIVDFVKNEKFFTLYVRSLELLQAKEQHDYSSFFQLAGIHGLPFTEWAKERPSMNLYKAGYCTHGQVLFPTWHRTYLSVLEQILQGAAIEVAKKFTSNQTDWVQAAQDLRQPYWDWGFELMPPDEVIKNEEVNITNYDGKKISVKNPILRYHFHPIDPSFKPYGDFATWRTTVRNPDRNRREDIPGLIKKMRLEEGQIREKTYNMLKFNDAWERFSNHGISDDQHANSLESVHDDIHVMVGYGKIEGHMDHPFFAAFDPIFWLHHTNVDRLLSLWKAINPDVWVTSGRNRDGTMGIAPNAQINSETPLEPFYQSGDKVWTSASLADTARLGYSYPDFDKLVGGTKELIRDAIDDLIDERYGSKPSSGARNTAFDLLADFKGITKEHKEDLKMYDWTIHVAFKKFELKESFSLLFYFASDGGDYDQENCFVGSINAFRGTAPETCANCQDNENLIQEGFIHLNHYLARDLESFEPQDVHKFLKEKGLSYKLYSRGDKPLTSLSVKIEGRPLHLPPGEHRPKYDHTQARVVFDDVAVHVIN"}}, "key": {"Tyrosinase [1]": {"target": "T1, Tyrosinase (Agaricus bisporus, UniProt O42713)", "T1 sequence (O42713 whole entry)": "B1 chain", "assay": "Inhibition of mushroom tyrosinase using L-DOPA as substrate"}, "B16-F10 [2]": {"tested_on": "B16-F10", "assay": "Cytotoxicity against mouse B16-F10 cells assessed as reduction in cell viability upto 10 ug/ml measured after 24 hrs by MTT assay", "assay_type": "cell-based", "settings": "b16-f10, 24 h, dose <=10 µg/ml"}, "B16-F10 [3]": {"tested_on": "B16-F10", "assay": "Cytotoxicity against mouse B16-F10 cells assessed as reduction in cell viability at 10 to 50 ug/ml measured after 24 hrs by MTT assay", "assay_type": "cell-based", "settings": "b16-f10, 24 h, dose 10-50 µg/ml"}, "[4]": {"assay": "Cytotoxicity against mouse B16-F10 cells assessed as cell viability at 50 ug/ml measured after 24 hrs by MTT assay relative to control", "assay_type": "cell-based", "settings": "at 50 µg/mL, read-out: Activity"}, "Tyrosinase [5]": {"target": "T1, Tyrosinase", "assay": "Noncompetitive inhibition of mushroom tyrosinase assessed as dissociation constant using L-DOPA as substrate by Lineweaver-Burk plot analysis"}, "B16-F10 [6]": {"tested_on": "B16-F10", "assay": "Anti-melanogenic activity in mouse B16-F10 cells assessed as reduction in alpha-MSH-induced tyrosinase expression at 10 uM incubated for 24 hrs by Western blot analysis", "assay_type": "functional, cell-based"}, "B16-F10 [7]": {"tested_on": "B16-F10", "assay": "Anti-melanogenic activity in mouse B16-F10 cells assessed as reduction in alpha-MSH-induced tyrosinase expression at 20 to 30 uM incubated for 24 hrs by Western blot analysis", "assay_type": "functional, cell-based", "settings": "dose 20-30 µM"}, "B16-F10 [8]": {"tested_on": "B16-F10", "assay": "Anti-melanogenic activity in mouse B16-F10 cells assessed as reduction in alpha-MSH-induced tyrosinase expression at 50 uM incubated for 24 hrs by Western blot analysis", "assay_type": "functional, cell-based"}, "B16-F10 [9]": {"tested_on": "B16-F10", "assay": "Anti-melanogenic activity against alpha-MSH-induced mouse B16-F10 cells assessed as reduction in melanin content at 10 uM incubated for 24 hrs […] relative to control", "assay_type": "functional"}, "B16-F10 [10]": {"tested_on": "B16-F10", "assay": "Anti-melanogenic activity against alpha-MSH-induced mouse B16-F10 cells assessed as reduction in melanin content at 20 uM incubated for 24 hrs […] relative to control", "assay_type": "functional"}, "B16-F10 [11]": {"tested_on": "B16-F10", "assay": "Anti-melanogenic activity against alpha-MSH-induced mouse B16-F10 cells assessed as reduction in melanin content at 30 uM incubated for 24 hrs […] relative to control", "assay_type": "functional"}, "B16-F10 [12]": {"tested_on": "B16-F10", "assay": "Anti-melanogenic activity against alpha-MSH-induced mouse B16-F10 cells assessed as reduction in melanin content at 50 uM incubated for 24 hrs […] relative to control", "assay_type": "functional"}, "[13]": {"compound": "COc1ccccc1-c1nnc(SCC(=O)Nc2ccccc2)o1", "assay": "Noncompetitive inhibition of mushroom tyrosinase assessed as Vmax at 0.0017 uM using L-DOPA as substrate by Lineweaver-Burk plot analysis", "settings": "Agaricus bisporus"}, "[14]": {"compound": "COc1ccccc1-c1nnc(SCC(=O)Nc2ccccc2)o1", "assay": "Noncompetitive inhibition of mushroom tyrosinase assessed as Vmax at 0.0033 uM using L-DOPA as substrate by Lineweaver-Burk plot analysis", "settings": "Agaricus bisporus"}, "[15]": {"compound": "COc1ccccc1-c1nnc(SCC(=O)Nc2ccccc2)o1", "assay": "Noncompetitive inhibition of mushroom tyrosinase assessed as Vmax at 0.0066 uM using L-DOPA as substrate by Lineweaver-Burk plot analysis", "settings": "Agaricus bisporus"}, "[16]": {"compound": "COc1ccccc1-c1nnc(SCC(=O)Nc2ccccc2)o1", "assay": "Noncompetitive inhibition of mushroom tyrosinase assessed as Km at 0.0017 uM using L-DOPA as substrate by Lineweaver-Burk plot analysis", "settings": "Agaricus bisporus"}, "[17]": {"compound": "COc1ccccc1-c1nnc(SCC(=O)Nc2ccccc2)o1", "assay": "Noncompetitive inhibition of mushroom tyrosinase assessed as Km at 0.0033 uM using L-DOPA as substrate by Lineweaver-Burk plot analysis", "settings": "Agaricus bisporus"}, "[18]": {"compound": "COc1ccccc1-c1nnc(SCC(=O)Nc2ccccc2)o1", "assay": "Noncompetitive inhibition of mushroom tyrosinase assessed as Km at 0.0066 uM using L-DOPA as substrate by Lineweaver-Burk plot analysis", "settings": "Agaricus bisporus"}}, "note": "Calls of active or inactive are those of the source. No cut-off for these calls is given here.", "data": [{"molecule": "COc1ccccc1-c1nnc(SCC(=O)Nc2ccc(Br)cc2)o1", "values": [{"measurement": "IC50", "setting": "Tyrosinase [1]", "result": 46, "unit": "nM"}]}, {"molecule": "COc1cccc(-c2nnc(SCC(=O)Nc3ccc(F)cc3)o2)c1", "values": [{"measurement": "IC50", "setting": "Tyrosinase [1]", "result": 27, "unit": "nM"}, {"measurement": "Activity", "setting": "B16-F10 [2]", "result": "Non-Toxic"}, {"measurement": "Activity", "setting": "B16-F10 [3]", "result": "Toxic"}]}, {"molecule": "O=C(CSc1nnc(-c2ccccc2)o1)Nc1ccc(Br)cc1", "values": [{"measurement": "IC50", "setting": "Tyrosinase [1]", "result": 39, "unit": "nM"}]}, {"molecule": "COc1ccccc1-c1nnc(SCC(=O)Nc2ccc(F)cc2)o1", "values": [{"measurement": "IC50", "setting": "Tyrosinase [1]", "result": 18, "unit": "nM"}, {"measurement": "viability at 24 h, 50 ug/ml", "setting": "[4]", "result": 80, "unit": "%"}]}, {"molecule": "O=C(CSc1nnc(-c2ccccc2)o1)Nc1ccc(I)cc1", "values": [{"measurement": "IC50", "setting": "Tyrosinase [1]", "result": 85, "unit": "nM"}]}, {"molecule": "COc1cccc(-c2nnc(SCC(=O)Nc3ccccc3)o2)c1", "values": [{"measurement": "IC50", "setting": "Tyrosinase [1]", "result": 19, "unit": "nM"}, {"measurement": "Activity", "setting": "B16-F10 [2]", "result": "Non-Toxic"}, {"measurement": "Activity", "setting": "B16-F10 [3]", "result": "Toxic"}]}, {"molecule": "O=C(CSc1nnc(-c2ccccc2)o1)Nc1ccc(F)cc1", "values": [{"measurement": "IC50", "setting": "Tyrosinase [1]", "result": 396, "unit": "nM"}]}, {"molecule": "COc1ccccc1-c1nnc(SCC(=O)Nc2ccc(I)cc2)o1", "values": [{"measurement": "IC50", "setting": "Tyrosinase [1]", "result": 23, "unit": "nM"}, {"measurement": "viability at 24 h, 50 ug/ml", "setting": "[4]", "result": 80, "unit": "%"}]}, {"molecule": "COc1cccc(-c2nnc(SCC(=O)Nc3ccc(I)cc3)o2)c1", "values": [{"measurement": "IC50", "setting": "Tyrosinase [1]", "result": 88, "unit": "nM"}]}, {"molecule": "COc1cccc(-c2nnc(SCC(=O)Nc3ccc(Br)cc3)o2)c1", "values": [{"measurement": "IC50", "setting": "Tyrosinase [1]", "result": 145, "unit": "nM"}]}, {"molecule": "COc1ccccc1-c1nnc(SCC(=O)Nc2ccccc2)o1", "values": [{"measurement": "IC50", "setting": "Tyrosinase [1]", "result": 3, "unit": "nM"}, {"measurement": "Ki", "setting": "Tyrosinase [5]", "result": 3.1, "unit": "nM"}, {"measurement": "Activity", "setting": "B16-F10 [6]", "result": "Active"}, {"measurement": "Activity", "setting": "B16-F10 [7]", "result": "Active"}, {"measurement": "Activity", "setting": "B16-F10 [8]", "result": "Active"}, {"measurement": "inhibition at 10 µM", "setting": "B16-F10 [9]", "result": 16, "unit": "%"}, {"measurement": "inhibition at 20 µM", "setting": "B16-F10 [10]", "result": 62, "unit": "%"}, {"measurement": "inhibition at 30 µM", "setting": "B16-F10 [11]", "result": 77, "unit": "%"}, {"measurement": "inhibition at 50 µM", "setting": "B16-F10 [12]", "result": 78, "unit": "%"}, {"measurement": "viability at 24 h, 50 ug/ml", "setting": "[4]", "result": 80, "unit": "%"}]}, {"molecule": "O=C(CSc1nnc(-c2ccccc2)o1)Nc1ccccc1", "values": [{"measurement": "IC50", "setting": "Tyrosinase [1]", "result": 231, "unit": "nM"}]}, {"molecule": "B1", "values": [{"measurement": "Vmax", "setting": "[13]", "result": 4.97, "unit": "deltaA/s"}, {"measurement": "Vmax", "setting": "[14]", "result": 3.64, "unit": "deltaA/s"}, {"measurement": "Vmax", "setting": "[15]", "result": 2.27, "unit": "deltaA/s"}, {"measurement": "Km", "setting": "[16]", "result": 250, "unit": "µM"}, {"measurement": "Km", "setting": "[17]", "result": 250, "unit": "µM"}, {"measurement": "Km", "setting": "[18]", "result": 250, "unit": "µM"}]}]}
